System: healthy volunteers
Assay: Polysomnography (PSG) sleep study, double-blind, placebo-controlled
Assay type: in vivo, human
Description: A double-blind, placebo-controlled study involving 45 healthy volunteers ranging in age from 40 to 64 was conducted. […] All subjects underwent a two-night screening and baseline PSG evaluation. Additional PSG measurements were performed on the evening of study days 1 and 13. The subjects also completed a Continuous Performance Test (CPT) to assess the potential impact on daytime functioning. […] Of the 45 subjects, 20 of them also underwent a positron emission tomography (PET) study to measure 5-HT2A brain receptor occupancy.
During an assessment period, participants stayed overnight in the clinic for […] from Day −1 to Day 2 and one night from Day 13 to Day 14. Participants underwent a one-night PSG evaluation on the evening of Day 1, following the first dose of treatment and a final one-night PSG evaluation on the evening of Day 13. Between Day 3 and Day 12, participants were at home.
Polysomnographic recordings were performed from 23:00 to 07:00 on the following day.
The drug was dispensed as a solution (in vials) per os (p.o.), in a double-blind fashion as determined by the randomization schedule. The content of the vials was completely consumed followed by the consumption of one vial of water.
Data Analysis: A multivariate analyses of variance (MANOVA) with 5 clusters of sleep parameters as dependent variables (sleep continuity architecture and profile parameters for the visual analysis, and NREM and REM parameters for the spectral power analysis as shown in Table 1) was conducted initially. Change from baseline to the last day of drug administration was assessed by an analysis of covariance with repeated measures (ANCOVA®), with the baseline variables as covariates, to detect group differences (drug at each dose versus placebo) in the PSG sleep findings. For each ANCOVA, two main effects (Treatment, 4 levels, and Study Day, 2 levels) and their interaction were analyzed. Drug to placebo contrasts were calculated as a whole (Day 1 and Day 13 combined) as well as separately for each Study Day. Change from baseline to the last day of drug administration, by group, on the results of the CPT was also analyzed. Additional pharmacodynamic analysis, including the electrographic results obtained on Study Day 1, was performed. SAS® Version 8.2 was used for non-pharmacokinetic parameters and WinNonLin V4.0 was used to compute all pharmacokinetic parameters.

CC(C)COc1ccc(CNC(=O)N(Cc2ccc(F)cc2)C2CCN(C)CC2)cc1 [N-(1-methylpiperidin-4-yl)-N-(4-fluorophenylmethyl)-N′-(4-(2-methylpropyloxy)phenylmethyl)carbamide]
Change in Slow Wave Sleep From Baseline (1 mg, Day 1): 6.4 min
Change in Slow Wave Sleep From Baseline, Percentage (1 mg, Day 1): 10%
Duration (min) of wake after sleep onset (1 mg, Day 1): 47.67 min
Number of awakenings after sleep onset (1 mg, Day 1): 20.22
SWS duration (1 mg, Day 1): 69.78 min
Change in Slow Wave Sleep From Baseline (1 mg, Day 13): 5.4 min
Change in Slow Wave Sleep From Baseline, Percentage (1 mg, Day 13): 9%
Duration (min) of wake after sleep onset (1 mg, Day 13): 40.06 min
Number of awakenings after sleep onset (1 mg, Day 13): 20.78
SWS duration (1 mg, Day 13): 68.78 min
NREM sleep % (2.5 mg, C): ↑ (↑, <.05)
NREM sleep duration (2.5 mg, C): ↑ (↑, <.05)
SWS 2nd third (2.5 mg, C): ↑↑ (↑↑, <.01)
SWS % (2.5 mg, C): ↑↑ (↑↑, <.01)
Stage 3% (2.5 mg, C): ↑ (↑, <.05)
Stage 3 duration (2.5 mg, C): ↑ (↑, <.05)
Stage 4% (2.5 mg, C): ↑ (↑, <.05)
Stage 4 duration (2.5 mg, C): ↑ (↑, <.05)
SWS 2nd third (2.5 mg, D1): ↑ (↑, <.05)
SWS % (2.5 mg, D1): ↑ (↑, <.05)
Stage 3% (2.5 mg, D1): ↑ (↑, <.05)
Stage 3 duration (2.5 mg, D1): ↑ (↑, <.05)
NREM sleep % (2.5 mg, D13): ↑↑ (↑↑, <.01)
NREM sleep duration (2.5 mg, D13): ↑ (↑, <.05)
Change in Slow Wave Sleep From Baseline (2.5 mg, Day 1): 21.8 min
Change in Slow Wave Sleep From Baseline, Percentage (2.5 mg, Day 1): 40%
Duration (min) of wake after sleep onset (2.5 mg, Day 1): 51.00 min
Number of awakenings after sleep onset (2.5 mg, Day 1): 21.44
SWS duration (2.5 mg, Day 1): 75.83 min
Change in Slow Wave Sleep From Baseline (2.5 mg, Day 13): 19.6 min
Change in Slow Wave Sleep From Baseline, Percentage (2.5 mg, Day 13): 36%
Duration (min) of wake after sleep onset (2.5 mg, Day 13): 30.44 min
Number of awakenings after sleep onset (2.5 mg, Day 13): 19.78
SWS duration (2.5 mg, Day 13): 73.61 min
SWS 1st third (5 mg, C): ↑↑ (↑↑, <.01)
SWS 2nd third (5 mg, C): ↑↑ (↑↑, <.01)
SWS % (5 mg, C): ↑↑ (↑↑, <.01)
Stage 1% (5 mg, C): ↓ (↓, <.05)
Stage 2% (5 mg, C): ↓ (↓, <.05)
Stage 3% (5 mg, C): ↑ (↑, <.05)
Stage 3 duration (5 mg, C): ↑ (↑, <.05)
Stage 4% (5 mg, C): ↑↑ (↑↑, <.01)
Stage 4 duration (5 mg, C): ↑↑ (↑↑, <.01)
SWS 1st third (5 mg, D1): ↑↑ (↑↑, <.01)
SWS % (5 mg, D1): ↑↑ (↑↑, <.01)
Stage 1% (5 mg, D1): ↓ (↓, <.05)
Stage 2% (5 mg, D1): ↓ (↓, <.05)
Stage 3% (5 mg, D1): ↑ (↑, <.05)
Stage 3 duration (5 mg, D1): ↑ (↑, <.05)
Stage 4% (5 mg, D1): ↑↑ (↑↑, <.01)
Stage 4 duration (5 mg, D1): ↑↑ (↑↑, <.01)
SWS 1st third (5 mg, D13): ↑ (↑, <.05)
SWS 2nd third (5 mg, D13): ↑ (↑, <.05)
SWS % (5 mg, D13): ↑↑ (↑↑, <.01)
Stage 4% (5 mg, D13): ↑↑ (↑↑, <.01)
Stage 4 duration (5 mg, D13): ↑↑ (↑↑, <.01)
Change in Slow Wave Sleep From Baseline (5 mg, Day 1): 37.3 min
Change in Slow Wave Sleep From Baseline, Percentage (5 mg, Day 1): 65%
Duration (min) of wake after sleep onset (5 mg, Day 1): 64.56 min
Number of awakenings after sleep onset (5 mg, Day 1): 20.67
SWS duration (5 mg, Day 1): 94.89 min
Change in Slow Wave Sleep From Baseline (5 mg, Day 13): 41.9 min
Change in Slow Wave Sleep From Baseline, Percentage (5 mg, Day 13): 73%
Duration (min) of wake after sleep onset (5 mg, Day 13): 43.89 min
Number of awakenings after sleep onset (5 mg, Day 13): 21.78
SWS duration (5 mg, Day 13): 99.56 min
duration and proportion of wake after sleep onset (20 mg): decreased
NREM sleep % (20 mg, C): ↑↑ (↑↑, <.01)
NREM sleep duration (20 mg, C): ↑ (↑, <.05)
SWS 1st third (20 mg, C): ↑↑ (↑↑, <.01)
SWS 2nd third (20 mg, C): ↑↑ (↑↑, <.01)
SWS % (20 mg, C): ↑↑ (↑↑, <.01)
Stage 2 duration (20 mg, C): ↓ (↓, <.05)
Stage 3% (20 mg, C): ↑ (↑, <.05)
Stage 3 duration (20 mg, C): ↑ (↑, <.05)
Stage 4% (20 mg, C): ↑↑ (↑↑, <.01)
Stage 4 duration (20 mg, C): ↑↑ (↑↑, <.01)
SWS 2nd third (20 mg, D1): ↑↑ (↑↑, <.01)
SWS % (20 mg, D1): ↑↑ (↑↑, <.01)
Stage 2 duration (20 mg, D1): ↓ (↓, <.05)
Stage 4% (20 mg, D1): ↑↑ (↑↑, <.01)
Stage 4 duration (20 mg, D1): ↑↑ (↑↑, <.01)
NREM sleep % (20 mg, D13): ↑↑ (↑↑, <.01)
SWS 2nd third (20 mg, D13): ↑↑ (↑↑, <.01)
SWS % (20 mg, D13): ↑↑ (↑↑, <.01)
Stage 4% (20 mg, D13): ↑↑ (↑↑, <.01)
Stage 4 duration (20 mg, D13): ↑↑ (↑↑, <.01)
Change in Slow Wave Sleep From Baseline (20 mg, Day 1): 46.0 min
Change in Slow Wave Sleep From Baseline, Percentage (20 mg, Day 1): 55%
Duration (min) of wake after sleep onset (20 mg, Day 1): 33.44 min
Number of awakenings after sleep onset (20 mg, Day 1): 20.89
SWS duration (20 mg, Day 1): 129.94 min
Change in Slow Wave Sleep From Baseline (20 mg, Day 13): 39.0 min
Change in Slow Wave Sleep From Baseline, Percentage (20 mg, Day 13): 46%
Duration (min) of wake after sleep onset (20 mg, Day 13): 29.89 min
Number of awakenings after sleep onset (20 mg, Day 13): 18.89
SWS duration (20 mg, Day 13): 122.94 min
REM sleep duration, proportion of REM sleep, REM sleep latency, REM activity or REM density (in words): no effect
latency to sleep onset (in words): did not alter
number of awakenings after sleep onset, drug to placebo contrasts (the 4 doses, most significant in 2.5 mg and 5 mg groups): significantly decreased
